Assay [1] addresses Mitogen-activated protein kinase 14 (Homo sapiens) (UniProt Q16539). Description: Inhibition of human P38alpha/MAPK at 10 uM in presence of 1 microM ATP.
The target of assay [2] is T1, TGF-beta receptor type-1 (Homo sapiens) (UniProt P36897).
T1 sequence (whole entry): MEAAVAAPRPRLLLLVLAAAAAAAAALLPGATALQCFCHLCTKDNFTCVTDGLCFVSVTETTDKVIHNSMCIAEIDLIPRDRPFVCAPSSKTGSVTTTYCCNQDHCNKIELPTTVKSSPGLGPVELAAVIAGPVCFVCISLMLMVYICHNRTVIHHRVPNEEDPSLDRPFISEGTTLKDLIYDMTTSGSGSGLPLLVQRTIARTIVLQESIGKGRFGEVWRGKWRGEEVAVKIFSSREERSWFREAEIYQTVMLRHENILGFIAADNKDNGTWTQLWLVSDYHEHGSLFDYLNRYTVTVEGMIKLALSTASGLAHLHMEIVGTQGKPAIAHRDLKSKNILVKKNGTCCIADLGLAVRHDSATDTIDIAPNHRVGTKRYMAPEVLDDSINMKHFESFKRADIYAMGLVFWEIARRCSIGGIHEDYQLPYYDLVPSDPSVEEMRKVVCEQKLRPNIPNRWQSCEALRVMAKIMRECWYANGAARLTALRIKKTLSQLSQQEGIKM
As to the kind of experiment: Inhibition of human ALK5 at 10 uM in presence of 1 microM ATP relative to control.

In a further assay the target is T2, TGF-beta receptor type-1 (Homo sapiens, UniProt P36897).
T2 sequence (P36897 whole entry): T1 sequence (whole entry)
As to the kind of experiment: Inhibition of human ALK5 in presence of 1 microM ATP.

The source of these data is ChEMBL document CHEMBL2321822, “Synthesis and biological evaluation of 1-(6-methylpyridin-2-yl)-5-(quinoxalin-6-yl)-1,2,3-triazoles as transforming growth factor-β type 1 receptor kinase inhibitors” (Bioorg Med Chem Lett, 2013).

Broadly, the inhibition is the change of the read-out against control, counted positive when it falls. Broadly, the IC50 is the concentration at which inhibition is half-maximal.

Mitogen-activated protein kinase 14 (Homo sapiens), sequence (Q16539 whole entry): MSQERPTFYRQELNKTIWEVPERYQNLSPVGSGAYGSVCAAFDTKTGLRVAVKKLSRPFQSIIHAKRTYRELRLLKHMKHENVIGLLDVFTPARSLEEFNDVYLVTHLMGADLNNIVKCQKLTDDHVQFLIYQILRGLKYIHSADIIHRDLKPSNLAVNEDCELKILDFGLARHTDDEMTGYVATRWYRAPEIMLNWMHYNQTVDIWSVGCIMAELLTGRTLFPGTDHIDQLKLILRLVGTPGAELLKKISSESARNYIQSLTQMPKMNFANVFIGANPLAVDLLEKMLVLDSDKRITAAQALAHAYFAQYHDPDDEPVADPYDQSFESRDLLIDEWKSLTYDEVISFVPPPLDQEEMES

Take `Cc1cccc(-n2nnc(Cc3ccccc3)c2-c2ccc3nccnc3c2)n1`: the inhibition in assay [1] is -1.94%; in assay [2], 80.8%. The IC50 on TGF-beta receptor type-1 is 4.69 µM.
As to `COc1ccc(-c2nnn(-c3cccc(C)n3)c2-c2ccc3nccnc3c2)cc1`, the inhibition in assay [2] came out at 0.26%.
`Cc1ccc(-c2nnn(-c3cccc(C)n3)c2-c2ccc3nccnc3c2)cc1`: the inhibition in assay [1] is -5.07%; in assay [2], 20.7%.
Consider `Cc1cccc(-n2nnc(-c3cc(F)cc(F)c3)c2-c2ccc3nccnc3c2)n1`, for which the inhibition came out at 40.4% in assay [1] and 17.4% in assay [2].
On the same counts, the results for `Cc1cccc(-n2nnc(-c3ccc(F)cc3)c2-c2ccc3nccnc3c2)n1` are 30.9% and 8.19%.
On the same counts, the results for `Cc1cccc(-n2nnc(-c3ccccc3)c2-c2ccc3nccnc3c2)n1` are 31.2% and -4.94%.
Consider `Cc1cccc(-n2nnc(CCCCO)c2-c2ccc3nccnc3c2)n1`, for which the inhibition in assay [2] is 20.4%. On TGF-beta receptor type-1, the IC50 came to 50.8 µM.
Turning to `COc1ccccc1-c1nnn(-c2cccc(C)n2)c1-c1ccc2nccnc2c1`, the inhibition in assay [1] turned out to be 18.4%; in assay [2], 34.9%. Further, at TGF-beta receptor type-1, the IC50 is 34.5 µM.
On the same counts, the results for `CCCCc1nnn(-c2cccc(C)n2)c1-c1ccc2nccnc2c1` are -2.52%, 70% and 7.38 µM.
On the same counts, the results for `Cc1cccc(-n2nnc(CCC(C)C)c2-c2ccc3nccnc3c2)n1` are -5.91%, 73.1% and 8.6 µM.
As for `COc1cc(OC)cc(-c2nnn(-c3cccc(C)n3)c2-c2ccc3nccnc3c2)c1`, the inhibition in assay [1] was -6.87%; in assay [2], 23.4%.
